Earlier results as cited in US6955904B2, “Gene coding for quinone oxidoreductase of kluyveromyces marxianus and protein expressed therefrom” (Korea Institute of Science and Technology, priority 2001, dated 2005).

Legend:
[1] = molecular target: T1, Arabidopsis thaliana quinone oxidoreductases (Arabidopsis thaliana, UniProt Q9LK88); conditions: Sparla et al., FEBS Letters 1999
T1 sequence (Q9LK88 1-196): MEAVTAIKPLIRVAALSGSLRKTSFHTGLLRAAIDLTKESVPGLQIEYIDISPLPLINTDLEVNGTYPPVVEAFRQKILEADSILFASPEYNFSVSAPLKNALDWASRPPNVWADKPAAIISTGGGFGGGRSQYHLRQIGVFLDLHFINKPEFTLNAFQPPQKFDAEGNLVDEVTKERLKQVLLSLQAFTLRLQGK

[2] = molecular target: human quinone oxidoreductase (Homo sapiens, UniProt P15559); conditions: Siegel et al., Mol. Pharmacol. 1997
human quinone oxidoreductase, sequence (P15559 whole entry): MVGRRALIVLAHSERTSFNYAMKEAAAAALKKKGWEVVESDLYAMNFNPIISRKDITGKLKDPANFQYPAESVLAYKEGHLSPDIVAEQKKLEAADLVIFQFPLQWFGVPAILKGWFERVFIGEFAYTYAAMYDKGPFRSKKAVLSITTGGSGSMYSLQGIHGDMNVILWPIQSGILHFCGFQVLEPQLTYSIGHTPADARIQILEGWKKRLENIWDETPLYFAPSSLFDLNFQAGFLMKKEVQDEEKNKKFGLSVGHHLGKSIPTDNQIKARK

SMILES | rate constant for the reaction [1] | rate constant for the reaction [2]
CC1=C(C)C(=O)C(C)=C(C)C1=O [duroquinone] | 3.2×10^7 M^−1m^−1 | –
CC1=C(C)C(=O)C(CC[C@](C)(O)CCC[C@H](C)CCC[C@H](C)CCCC(C)C)=C(C)C1=O [α-tocopherol quinone] | – | 1.5×10^7 M^−1m^−1
